Measurements: the NIST ThermoML archive (doi:10.1016/j.tca.2015.08.013)

Assays:
[1] = relative permittivity at various frequencies (dimensionless); settings: 99 kPa, Liquid, Frequency=2 MHz, Parallel plate capacitor
[2] = refractive index (Na D-line) (dimensionless); settings: 101.33 kPa, Liquid, Standard Abbe refractometry

Cc1ccc(C)o1 [2,5-dimethylfuran]
Settings	refractive index, [2]	relative permittivity, [1]
278.15 K	–	2.562
280.65 K	–	2.553
283.15 K	1.4477	2.538
285.65 K	1.44645	2.526
288.15 K	1.44494	2.516
290.65 K	1.44362	2.499
293.15 K	1.44218	2.492
295.65 K	1.44079	2.472
298.15 K	1.43942	2.462
300.65 K	1.43796	2.445
303.15 K	1.43665	2.434
305.65 K	1.43513	2.418
308.15 K	1.43383	2.404
310.65 K	1.4323	2.391
313.15 K	1.43098	2.376
315.65 K	1.42947	2.364
318.15 K	1.42815	2.349
320.65 K	1.42664	2.337
323.15 K	1.42525	2.321
325.65 K	1.42381	2.31
328.15 K	1.42239	2.292
330.65 K	1.42098	2.283
333.15 K	1.41948	2.272
335.65 K	1.41815	2.256
338.15 K	1.41657	2.245

c1ccoc1 [furan]
Settings	refractive index, [2]	relative permittivity, [1]
278.15 K	–	3.124
280.65 K	–	3.094
283.15 K	1.42784	3.068
285.65 K	1.42625	3.036
288.15 K	1.42463	3.009
290.65 K	1.42303	2.988
293.15 K	1.42141	2.958
295.65 K	1.41979	2.934
298.15 K	1.41814	2.913
300.65 K	1.4165	2.892
303.15 K	1.41485	2.865
